From patent publication US8735384B2, “Amino heteroaryl compounds as beta-secretase modulators and methods of use” (Amgen Inc., priority 2010, dated 2014)
Where two headings read alike, the source gives them in different places.

Columns and labels:
[1] = test system: Aβ40 in conditioned medium of cells stably expressing Amyloid Precursor Protein (APP); assay: In vitro BACE cell-based assay (HEK cell assay), Aβ40 sandwich ELISA; conditions: inhibition of Aβ40, 24 h incubation, read-out: HEK cell assay (IC50 class)
Experimental: In Vitro BACE Cell-Based Assay:
The cell-based assay measures inhibition or reduction of Aβ40 in conditioned medium of test compound treated cells expressing amyloid precursor protein.
Cells stably expressing Amyloid Precursor Protein (APP) were plated at a density of 40K cells/well in 96 well plates (Costar). The cells were cultivated for 24 hours at 37° C. and 5% CO2 in DMEM supplemented with 10% FBS. The test compounds were then added to cells in 10-point dose response concentrations with the starting concentration being either 100 μM or 10 μM. The compounds were diluted from stock solutions in DMSO and the final DMSO concentration of the test compounds on cells was 0.1%. After 24 h of incubation with the test compounds the supernatant conditioned media was collected and the Aβ 40 levels were determined using a sandwich ELISA. The IC50 of the compound was calculated from the percent of control or percent inhibition of Aβ 40 as a function of the concentration of the test compound.
The sandwich ELISA to detect Aβ 40 was performed in 96 well microtiter plates, which were pre-treated with goat anti-rabbit IgG (Pierce). The capture and detecting antibody pair that were used to detect Aβ 40 from cell supernatants were affinity purified pAb40 (Biosource) and biotinylated 6E10 (Signet Labs Inc.), respectively. The optimal concentration for the pAb40 antibody was 3 μg/ml in Superblock/TBS (Pierce) that was supplemented with 0.05% Tween 20 (Sigma). Optimal concentration for the detection antibody 6E10-biotinylated was 0.5 μg/ml in Superblock/TBS (Pierce) that had been supplemented with 2% normal goat serum and 2% normal mouse serum.
Cellular supernatants were incubated with the capture antibody for 3 h at 4° C., followed by 3 wash steps in TBS-tween (0.05%). The detecting antibody incubation was for 2 h at 4° C., again followed by the wash steps as described previously. The final readout of the ELISA is Time-Resolved Fluorescence (counts per minute) using Delfia reagents Streptavidin-Europium and Enhancement solutions (Perkin Elmer) and the Victor 2 multilabel counter (Perkin Elmer).

BACE1 = BACE1 (Homo sapiens, UniProt P56817); assay: In vitro enzymatic BACE FRET assay; type: biochemical; conditions: beta secretase enzyme 0.2 nM, FRET substrate 50 nM, pH 4.2; read-out: BACE1 FRET assay (IC50 class)
Sequence of BACE1 (P56817 46-501, species assumed): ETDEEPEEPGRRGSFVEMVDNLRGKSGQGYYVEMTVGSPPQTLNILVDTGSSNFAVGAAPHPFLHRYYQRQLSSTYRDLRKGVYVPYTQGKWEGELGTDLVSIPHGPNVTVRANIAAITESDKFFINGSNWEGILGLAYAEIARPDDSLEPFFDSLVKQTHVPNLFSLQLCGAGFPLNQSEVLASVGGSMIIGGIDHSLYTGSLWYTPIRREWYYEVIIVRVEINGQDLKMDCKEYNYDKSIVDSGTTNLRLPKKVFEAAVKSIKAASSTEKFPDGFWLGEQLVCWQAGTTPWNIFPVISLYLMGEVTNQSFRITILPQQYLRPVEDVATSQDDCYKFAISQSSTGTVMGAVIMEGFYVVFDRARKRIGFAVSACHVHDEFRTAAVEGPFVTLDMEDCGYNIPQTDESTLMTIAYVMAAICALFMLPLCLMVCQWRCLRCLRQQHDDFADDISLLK
Experimental: In Vitro Enzymatic BACE FRET (Fluorescence Resonance Energy Transfer) Assay (Enzyme Assay Data in Table 1)
The assay buffer used in this screen is 0.05 M acetate, pH 4.2, 10% DMSO final, 100 uM genapol (which is a nonionic detergent, below its Critical Micelle Concentration). The beta secretase enzyme (0.2 nM) is pre-incubated for one hour with inhibitors, typically in about 1 uL of DMSO according to a serial dilution, are added thereto. The assay is effectively started by the addition of FRET substrate (50 nM) and the combination is incubated for one hour. The FRET assay is terminated with by addition of Tris buffer, which raises the pH to neutrality, and the fluorescence is determined. The FRET substrate is a peptide with commercially available fluorophore and quencher, on opposite sides of the BACE cleavage site. Proteolytic cleavage of the FRET substrate releases quenching of fluorescence (excitation […] and […]).
Of the compounds tested, the in-vitro BACE FRET enzyme data for each of Examples 1-220, where available at the time of filing this application, is provided in Table 1.

Row | Compound | IC50 ([1]; Homo sapiens, HEK293, 24 h) | IC50 (BACE1) | IC50 [1]
1 | Cc1cccc(C(=O)N2CCC(C(C)(C)C)CC2)c1-c1ccc2nc(N)c(N3CCOCC3)cc2c1 [Example 93, (2-(2-amino-3-morpholinoquinolin-6-yl)-3-methylphenyl)(4-tert-butylpiperidin-1-yl)methanone] | 501 to 1000 nM | < 100 nM | –
2 | Cc1cccc(-c2cccc(C(F)(F)F)c2)c1-c1ccc2nc(N)c(N3CCOCC3)cc2c1 [Example 25, 6-(3-methyl-3′-(trifluoromethyl)biphenyl-2-yl)-3-morpholinoquinolin-2-amine] | > 5000 nM | < 100 nM | –
3 | Cc1cccc(C(=O)N2CCCC(C)(C)C2)c1-c1ccc2nc(N)c(N3CCOCC3)cc2c1 [Example 86, (2-(2-amino-3-morpholinoquinolin-6-yl)-3-methylphenyl)(3,3-dimethylpiperidin-1-yl)methanone] | 100 to 500 nM | < 100 nM | –
4 | Nc1nc2ccc(-c3c(CCc4ccccc4)cccc3C(=O)N3CCCC3)cc2cc1N1CCOCC1 [Example 162, (2-(2-amino-3-morpholinoquinolin-6-yl)-3-phenethylphenyl)(pyrrolidin-1-yl)methanone] | < 100 nM | < 100 nM | –
5 | Cc1cccc(C(=O)c2cccc(Cl)c2)c1-c1ccc2nc(N)c(N3CCOCC3)cc2c1 [Example 174, (2-(2-amino-3-morpholinoquinolin-6-yl)-3-methylphenyl)(3-chlorophenyl)methanone] | 1010 to 5000 nM | < 100 nM | –
6 | Cc1cccc(C(=O)N(C)CC(C)C)c1-c1ccc2nc(N)c(N3CCOCC3)cc2c1 [Example 104, 2-(2-amino-3-morpholinoquinolin-6-yl)-N-isobutyl-N,3-dimethylbenzamide] | 501 to 1000 nM | < 100 nM | –
7 | Cc1cccc(Cc2cnccn2)c1-c1ccc2nc(N)c(N3CCOCC3)cc2c1 [Example 37, 6-(2-methyl-6-(pyrazin-2-ylmethyl)phenyl)-3-morpholinoquinolin-2-amine] | 1010 to 5000 nM | 501 to 1000 nM | –
8 | Cc1cccc(Oc2ccccc2)c1-c1ccc2nc(N)c(N3CCOCC3)cc2c1 [Example 171, 6-(2-methyl-6-phenoxyphenyl)-3-morpholinoquinolin-2-amine] | > 5000 nM | < 100 nM | –
9 | Nc1nc2ccc(-c3ccccc3C(O)C3CCOCC3)cc2cc1N1CCOCC1 (stereo not shown) [Example 12, (2-(2-amino-3-morpholinoquinolin-6-yl)phenyl)(tetrahydro-2H-pyran-4-yl)methanol] | > 5000 nM | 1010 to 5000 nM | –
10 | Nc1nc2ccc(-c3c(C#Cc4ccccc4)cccc3C(=O)N3CCCC3)cc2cc1N1CCOCC1 [Example 161, (2-(2-amino-3-morpholinoquinolin-6-yl)-3-(phenylethynyl)phenyl)(pyrrolidin-1-yl)methanone] | 501 to 1000 nM | < 100 nM | –
11 | Cc1cccc(C(=O)N2CCCC2)c1-c1ccc2nc(N)c(N3CCOC[C@H]3C)cc2c1 [Example 20, (R)-(2-(2-amino-3-(3-methylmorpholino)quinolin-6-yl)-3-methylphenyl)(pyrrolidin-1-yl)methanone] | 501 to 1000 nM | < 100 nM | –
12 | CCCC(=O)c1cccc(C)c1-c1ccc2nc(N)c(N3CCOCC3)cc2c1 [Example 179, 1-(2-(2-amino-3-morpholinoquinolin-6-yl)-3-methylphenyl)butan-1-one] | 1010 to 5000 nM | 100 to 500 nM | –
13 | Cc1cccc(C(=O)N2CCCC2C)c1-c1ccc2nc(N)c(N3CCOCC3)cc2c1 (stereo not shown) [Example 67, (2-(2-amino-3-morpholinoquinolin-6-yl)-3-methylphenyl)(2-methylpyrrolidin-1-yl)methanone] | 100 to 500 nM | < 100 nM | –
14 | Cc1cccc(C(=O)N(C)Cc2ccccc2)c1-c1ccc2nc(N)c(N3CCOCC3)cc2c1 [Example 136, 2-(2-amino-3-morpholinoquinolin-6-yl)-N-benzyl-N,3-dimethylbenzamide] | 1010 to 5000 nM | 100 to 500 nM | –
15 | Cc1cccc(COc2cc(C(F)(F)F)ccc2Cl)c1-c1ccc2nc(N)c(N3CCOCC3)cc2c1 [Example 208, 6-(2-((2-chloro-5-(trifluoromethyl)phenoxy)methyl)-6-methylphenyl)-3-morpholinoquinolin-2-amine] | 100 to 500 nM | < 100 nM | –
16 | Cc1cccc(C(=O)N2CCCC2)c1-c1ccc2nc(N)c(N3CCOC[C@@H]3C)cc2c1 [Example 210, (S)-(2-(2-amino-3-(3-methylmorpholino)quinolin-6-yl)-3-methylphenyl)(pyrrolidin-1-yl)methanone] | 1010 to 5000 nM | 501 to 1000 nM | –
17 | Nc1nc2ccc(-c3ccccc3C(=O)C3CCOCC3)cc2cc1N1CCOCC1 [Example 11, (2-(2-amino-3-morpholinoquinolin-6-yl)phenyl)(tetrahydro-2H-pyran-4-yl)methanone] | 1010 to 5000 nM | 100 to 500 nM | –
18 | Nc1nc2ccc(-c3c(F)cccc3C(=O)N3CCCC3)cc2cc1N1CCOCC1 [Example 148, (2-(2-amino-3-morpholinoquinolin-6-yl)-3-fluorophenyl)(pyrrolidin-1-yl)methanone] | 1010 to 5000 nM | 100 to 500 nM | –
19 | Cc1cccc(C(=O)CC(C)C)c1-c1ccc2nc(N)c(N3CCOCC3)cc2c1 [Example 182, 1-(2-(2-amino-3-morpholinoquinolin-6-yl)-3-methylphenyl)-3-methylbutan-1-one] | 501 to 1000 nM | < 100 nM | –
20 | C#CCN(C)C(=O)c1cccc(C)c1-c1ccc2nc(N)c(N3CCOCC3)cc2c1 [Example 108, 2-(2-amino-3-morpholinoquinolin-6-yl)-N,3-dimethyl-N-(prop-2-ynyl)benzamide] | 501 to 1000 nM | < 100 nM | –
21 | Cc1cccc(C(=O)N2C[C@H]3CC[C@@H]2C3)c1-c1ccc2nc(N)c(N3CCOCC3)cc2c1 [Example 68, (2-(2-amino-3-morpholinoquinolin-6-yl)-3-methylphenyl)((1R,4S)-2-azabicyclo[2.2.1]heptan-2-yl)methanone] | 100 to 500 nM | < 100 nM | –
22 | Cc1cccc(C(=O)N2CCCC2)c1-c1ccc2nc(N)c(C3CCCCO3)cc2c1 (stereo not shown) [Example 29, (2-(2-amino-3-(tetrahydro-2H-pyran-2-yl)quinolin-6-yl)-3-methylphenyl)(pyrrolidin-1-yl)methanone] | 1010 to 5000 nM | 100 to 500 nM | –
23 | Nc1nc2ccc(-c3ccccc3OCc3ccccc3)cc2cc1N1CCOCC1 [Example 53, 6-(2-(benzyloxy)phenyl)-3-morpholinoquinolin-2-amine] | > 5000 nM | 100 to 500 nM | –
24 | 2-(2-amino-3-(2,6-dimethylmorpholino)quinolin-6-yl)-N-ethyl-3-methyl-N-propylbenzamide [Example 216] | – | < 100 nM | 1010 to 5000 nM
25 | Cc1cccc(C(c2ccccc2)N2CCCC2)c1-c1ccc2nc(N)c(N3CCOCC3)cc2c1 (stereo not shown) [Example 9, 6-(2-methyl-6-(phenyl(pyrrolidin-1-yl)methyl)phenyl)-3-morpholinoquinolin-2-amine] | 100 to 500 nM | 501 to 1000 nM | –
26 | CCCCC(=O)c1cccc(C)c1-c1ccc2nc(N)c(N3CCOCC3)cc2c1 [Example 180, 1-(2-(2-amino-3-morpholinoquinolin-6-yl)-3-methylphenyl)pentan-1-one] | 1010 to 5000 nM | < 100 nM | –
27 | Nc1nc2ccc(-c3c(Cl)cccc3C(=O)N3CCOCC3)cc2cc1N1CCOCC1 [Example 144, (2-(2-amino-3-morpholinoquinolin-6-yl)-3-chlorophenyl)(morpholino)methanone] | 1010 to 5000 nM | 100 to 500 nM | –
28 | Cc1cccc(C(=O)c2ccccn2)c1-c1ccc2nc(N)c(C3CCOCC3)cc2c1 [Example 38, (2-(2-amino-3-(tetrahydro-2H-pyran-4-yl)quinolin-6-yl)-3-methylphenyl)(pyridin-2-yl)methanone] | 100 to 500 nM | < 100 nM | –
29 | Nc1nc2cc(F)c(-c3ccccc3C(=O)N3CCCC3)cc2cc1N1CCOCC1 [Example 140, (2-(2-amino-7-fluoro-3-morpholinoquinolin-6-yl)phenyl)(pyrrolidin-1-yl)methanone] | 1010 to 5000 nM | 100 to 500 nM | –
